Measurements as given in article PMC8551653, “Bisphenol A derivatives act as novel coactivator-binding inhibitors for estrogen receptor β” (The Journal of Biological Chemistry, 2021).
“Also recorded” adds a separate entry of the source.

Experiments:
[1] = molecular target: T1, ERβ (Homo sapiens, UniProt Q92731); assay: Luciferase reporter gene assay in HeLa cells, antagonistic activity against 10 nM E2; type: cell-based; design: expressed in transfected cells; host or cells: HeLa; conditions: against 10 nM E2-induced ERβ activation; 100 nM, 1 μM, 10 μM
Protocol: (§1) HeLa cells were maintained in Eagle's minimum essential medium (Nissui Pharmaceutical Co, Ltd) supplemented with DCC-treated fetal bovine serum (10%, v/v) at 37 °C under 5% CO2. […] After a 24-h incubation, luciferase activity was measured using the ONE-Glo Luciferase Assay System (Promega Co) on an EnSpire multimode plate reader (PerkinElmer, Inc).
Target sequence in this assay (Q92731 whole entry): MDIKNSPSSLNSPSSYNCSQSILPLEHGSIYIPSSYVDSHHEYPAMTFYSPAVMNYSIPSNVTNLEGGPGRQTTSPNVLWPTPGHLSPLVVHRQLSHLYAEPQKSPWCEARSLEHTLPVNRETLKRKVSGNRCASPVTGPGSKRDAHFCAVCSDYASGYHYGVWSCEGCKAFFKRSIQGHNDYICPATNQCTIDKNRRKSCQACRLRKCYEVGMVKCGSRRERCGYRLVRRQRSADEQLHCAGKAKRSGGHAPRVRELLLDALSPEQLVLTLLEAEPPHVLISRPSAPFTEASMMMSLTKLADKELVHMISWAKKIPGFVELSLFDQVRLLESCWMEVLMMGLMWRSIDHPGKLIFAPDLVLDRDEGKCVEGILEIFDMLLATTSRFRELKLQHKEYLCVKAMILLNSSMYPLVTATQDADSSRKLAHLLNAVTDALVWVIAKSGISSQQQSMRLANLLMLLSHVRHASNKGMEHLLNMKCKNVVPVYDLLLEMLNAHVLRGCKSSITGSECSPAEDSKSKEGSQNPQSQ

[2] = molecular target: T1, ERβ; assay: Competitive binding assay with [3H]4OHT for WT ERβ; design: made in house; host or cells: Escherichia coli BL21α; conditions: [3H]4OHT radioligand
Protocol: (§2) After successive incubation with 100 μl of 0.4% dextran-coated charcoal (DCC) (Sigma-Aldrich) in PBS (pH 7.4) on ice for 10 min, free radioligands bound to DCC were removed using a vacuum filtration system with a 96-well filtration plate (MultiScreenHTS HV, […], Merck KGaA) for the bound/free separation. The radioactivity of each eluent was measured using a liquid scintillation counter (LS6500; Beckman Coulter) and Clear-sol I (Nacalai Tesque Inc). […] Each compound was dissolved in dimethyl sulfoxide to prepare a 1.0 mM stock solution and further diluted to prepare serial dilutions (10^−12 M to 10^−5 M) in the binding buffer. […] Bound/free separation was performed as described above, and the radioactivity was determined using a MicroBeta microplate counter (PerkinElmer Inc). The IC50 value of each test compound was calculated from the dose–response curves generated via nonlinear regression analysis using Prism software (GraphPad Software Inc).
Target sequence in this assay (Q92731 263-530): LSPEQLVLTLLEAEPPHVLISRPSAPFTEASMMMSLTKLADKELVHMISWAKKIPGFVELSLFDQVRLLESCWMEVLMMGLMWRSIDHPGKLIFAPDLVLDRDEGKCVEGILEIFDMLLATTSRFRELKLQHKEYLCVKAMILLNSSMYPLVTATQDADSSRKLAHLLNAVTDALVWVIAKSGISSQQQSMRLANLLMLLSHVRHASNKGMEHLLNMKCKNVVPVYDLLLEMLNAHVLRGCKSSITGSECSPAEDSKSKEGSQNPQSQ

[3] = molecular target: T2, ERβ(W335A) (Homo sapiens, UniProt Q92731, W335A); assay: Luciferase reporter gene assay in HeLa cells, ERβ(W335A); type: cell-based; design: expressed in transfected cells; host or cells: HeLa
Protocol: as §1, with “After incubation for 24 h, cells were harvested and seeded onto 96-well plates at 5 × 10^4 cells/well, and then treated with a series of the test compounds (10^−12 M to 10^−5 M, final concentration) diluted with 1% bovine serum albumin/PBS (v/v). After” for “After”
Target sequence in this assay (Q92731 whole entry W335A): as the sequence (Q92731 whole entry) above, with W335A counted along it

[4] = molecular target: T1, ERβ; assay: Radioligand competitive binding assay with [3H]E2 for ERβ (GST-ERβ-LBD); design: made in house; host or cells: Escherichia coli BL21α; conditions: relative to E2
Protocol: Human ERβ cDNA was obtained from OriGene Technologies. The cDNA of ERβ-LBD was amplified using PCR and subcloned into a pGEX-6p-1 expression vector. The expression of GST-fused ERβ-LBD was induced by 1 mM IPTG in Escherichia coli BL21α at 16 °C for overnight. The resulting crude protein was affinity-purified using Glutathione-Sepharose 4B (Cytiva), followed by gel filtration using a Sephadex G-10 column (Cytiva).
Target sequence in this assay (Q92731 263-530): as the sequence (Q92731 263-530) above

[5] = molecular target: T2, ERβ(W335A); assay: Competitive binding assay for ERβ(W335A); design: made in house; host or cells: Escherichia coli BL21α (described for the wild-type LBD); conditions: Fig. 4B
Protocol: as §2
Target sequence in this assay (Q92731 263-530 W335A): as the sequence (Q92731 263-530) above, with W73A counted along it

[6] = molecular target: T1, ERβ; assay: Luciferase reporter gene assay in HeLa cells, agonistic activity; type: cell-based; design: expressed in transfected cells; host or cells: HeLa; conditions: HeLa cells, WT ERβ; listed as BPA
Protocol: as §1
Target sequence in this assay (Q92731 whole entry): as the sequence (Q92731 whole entry) above

[7] = molecular target: T3, GST-fused ligand-binding domain of human estrogen receptor β (amino acids 263–530) (human, UniProt Q92731 263-530); assay: SPR; Biacore T100; GST-ERβ-LBD without E2, captured on anti-GST antibody on a CM5 chip; SRC1 peptide injected; HBS-EP+ buffer; conditions: both partners purified
T3 construct: cDNA from OriGene Technologies; Subcloned into pGEX-6p-1; Captured on the chip through an anti-GST antibody; Incubated beforehand with 10 μM E2 or 10 μM BPC (small molecules) in two of the three SPR conditions; also called GST-ERβ-LBD; ERβ-LBD; source: E. coli BL21α, purified (Glutathione-Sepharose 4B, gel filtration on Sephadex G-10)
T3 sequence (Q92731 263-530): as the sequence (Q92731 263-530) above

[8] = molecular target: T3, GST-fused ligand-binding domain of …; assay: SPR; Biacore T100; GST-ERβ-LBD incubated with 10 μM E2 for 1 h, captured on anti-GST antibody on a CM5 chip at 25 °C; SRC1 peptide injected with E2; HBS-EP+ buffer (0.01 M Hepes pH 7.4, 0.15 M NaCl, 3 mM EDTA, 0.05% Surfactant P20); conditions: both partners purified
[9] = molecular target: T3, GST-fused ligand-binding domain of …; assay: SPR; Biacore T100; GST-ERβ-LBD incubated with 10 μM BPC for 1 h, captured on anti-GST antibody on a CM5 chip at 25 °C; SRC1 peptide injected with BPC; HBS-EP+ buffer; conditions: both partners purified

Row | ERβ antagonist activity (in words) [1] | shape of competitive binding curve, WT ERβ [2] | transcriptional activity on ERβ(W335A) (in words) [3] | affinity for ERβ, times weaker than that of E2 [4] [times] | Kd [7] [µM] | Kd [8] [µM] | Kd [9] [µM] | Molecule | shape of competitive binding curve, ERβ(W335A) [5] | ERβ agonist activity (in words) [6]
1 | did not elicit antagonistic activity | sigmoidal curve | lost | 400 | – | – | – | CC(C)(c1ccc(O)cc1)c1ccc(O)cc1 [Compound 19, 4,4'-(propane-2,2-diyl)diphenol] | typical sigmoidal competitive dose–response curve | full agonist activity; also recorded: strongest ERβ agonistic activity; also recorded: strong transcriptional activity
2 | – | – | – | – | 9.1 | 3.3 | 16.4 | ERHKILHRLLQEG (source: synthetic peptide (ABI 433A, solid phase, Fmoc chemistry)) [SRC1 peptide (amino acids 685–697) derived from human nuclear receptor coactivator 1] | – | –
